Data reported in US6593462B2, “Purified β1,2-xylosyltransferase and uses thereof” (priority 1997, dated 2003).

Key:
β1,2-xylosyltransferase [1] = experiment: Solubilization of xylosyltransferase from microsomes by detergents; assay type: biochemical, soybean; conditions: for Xylose Transferred to Acceptor (cpm), High Speed Supernatant / Xylose Transferred to Acceptor (cpm), Particulate Suspension: protein 10 mg/ml
Experimental: In order to purify this glycosyltransferase, it was necessary to solubilize the enzyme from the microsomes. A variety of detergents were tested at different concentrations for their ability to solubilize the xylosyltransferase and maintain its stability. […] The enzymatic activity in the supernatant liquid was then measured in the usual transferase assay.

β1,2-xylosyltransferase [2] = experiment: Xylosyltransferase activity assay: transfer of 3H-xylose from UDP-[3H]xylose to oligosaccharide acceptor; assay type: biochemical, soybean; conditions: for Stimulation of enzyme activity / Effect of cation added to the purified enzyme (in words): 1 mM; for Stimulation of enzyme activity: enzyme dialyzed in the presence of EDTA; for Activity (cpm xylose transferred) with Particulate Enzyme / Activity (cpm xylose transferred) with Purified Enzyme: oligosaccharide as acceptor, gel filtration on Biogel P-4; for Km: purified enzyme, FIG. 8
Experimental: Reaction mixtures for the assay of β1,2-xylosyltransferase contained the following components in a final volume of 25 μl: 100 mM MES buffer, pH 7.0, 10 mM MnCl2, 0.2% Triton X-100, 5 mM ATP, 0.2 mM UDP-[^3H]xylose (15,000 cpm), and 4 nmol of oligosaccharide acceptor (usually GlcNAc2-Man3-GlcNAc2-tyrosinamide; see structure 4 of FIG. 6, or the asialo-agalacto-oligosaccharide from transferrin). The reaction was started by the addition of 5 μl of the enzyme solution, and incubations were usually at 37° C. for 1 hour. The reaction was stopped by the addition of 100 μl of 1% acetic acid, and the reaction mixtures were chromatographed on a column of Biogel P-4 prepared by placing 8 ml of gel into a 10 ml pipette. The columns were equilibrated with 1% acetic acid, and the product was separated from substrates by elution with 1% acetic acid containing 0.2 M NaCl.
When more purified enzyme preparations were used in the assays, the radiolabeled product could be separated from the radioactive substrate by ion-exchange chromatography on an Amberlite column (or a column of Dowex-1-Cl^−) contained in a Pasteur pipette. […] Thus the wash can be counted as a measure of radioactive xylose transferred to oligosaccharide. In these assays, it is important to be certain that the enzyme preparation is free of degradative enzymes that cleave UDP-xylose to free xylose.

β1,2-xylosyltransferase [3] = experiment: Specificity of nucleoside diphosphate sugar donor for xylosyltransferase; assay type: biochemical, soybean; conditions: radioactive sugar nucleotide 20,000 cpm, 200 μM, asialo-agalactotransferrin glycopeptide acceptor, 1 hour at 37°; for cpm incorporated into oligosaccharide, Purified Enzyme: about 20 ng protein
Experimental: The substrate specificity of the xylosyltransferase for the nucleoside diphosphate sugar donor was also examined, using a variety of radiolabeled sugar nucleotides, as presented in Table 4. Each of these substrates was adjusted to have the same specific activity, and they were compared to each other at that activity.
Enzyme (particulate fraction or purified xylosyltransferase (about 20 ng protein) from UDP-hexanolamine-Sepharose) was incubated with radioactive sugar nucleotide (20,000 cpm; 200 μM) and asialo-agalactotransferrin glycopeptide for 1 hour at 37°. The reaction mixture was then separated on a Biogel P-4 column and radioactivity in oligasaccharide was determined.

[4] = tested on: β1,2-xylosyltransferase (56 and 59 kDa bands); experiment: Photoaffinity labeling of xylosyltransferase with N3-UDP[32P]-xylose; assay type: binding, soybean; conditions: for Effect of unlabeled nucleoside diphosphate sugar on radiolabel in the 56 and 59 kDa bands: 10 and 100 μM (b69 prints 0.1, 1 and 10 μM for UDP-xylose); for Effect of oligosaccharide on binding of UDP-xylose probe: FIG. 3A lanes 12 and 13
Experimental: In FIG. 3B, effects of various amounts of acceptor oligosaccharides on labeling with UDP-xylose probe are shown.
In order to determine which band was really the xylosyltransferase, the enzyme fraction from UDP-hexanolamine-Sepharose was incubated with azido-UDP[^32P]-xylose, and after 30 sec., the mixture was exposed to UV light to activate the azido group.
Thus, lane 1 is without oligosaccharide acceptor while lanes 2-5 are with 4, 10, 30 and 80 μM oligosaccharide 4 and lanes 6-9 with oligoscacharide 10.

fucosyltransferase = experiment: Fucose incorporation from GDP-[3H]fucose into oligosaccharide 4 by soybean particulate enzyme; assay type: biochemical; conditions: oligosaccharide 4 acceptor
Experimental: Based on the substrate specificity for oligosaccharide acceptor, it would appear that xylose is added after the action of GlcNAc transferase I and mannosidase II but before the addition of galactose residues to the terminal GlcNAc units. Most of these types of N-linked oligosaccharides also contain an […] L-fucose on the innermost GlcNAc unit. In order to determine whether addition of xylose affects fucose transfer to the oligosaccharide, or vice versa, assays were prepared that contained oligosaccharide 4 as acceptor, radiolabeled nucleoside diphosphate sugar (i.e., either UDP-[^3H]xylose or GDP-[^3H]fucose) and either unlabeled UDP-xylose or unlabeled GDP-fucose. Thus, when the incubation contained radioactive UDP-xylose, various amounts of unlabeled GDP-fucose were added to determine whether addition of fucose would stimulate or inhibit xylose transfer. Likewise, when labeled GDP-fucose was used, the incubations contained unlabeled UDP-xylose. These incubations were done with the soybean particulate enzyme, so that both fucosyltransferase and xylosyltransferase were present.

β1,2-xylosyltransferase [5] = experiment: Xylosyltransferase activity assay: transfer of 3H-xylose from UDP-[3H]xylose to oligosaccharide acceptor; assay type: biochemical, soybean; conditions: donor substrate; 5 nmoles of oligosaccharide 4; FIG. 9

Molecule: C[C@H](CCC(=O)NCCC[N+](C)(C)CCCS(=O)(=O)[O-])[C@H]1CC[C@H]2[C@@H]3[C@H](O)C[C@@H]4C[C@H](O)CC[C@]4(C)[C@H]3C[C@H](O)[C@]12C [CHAPS]
- Xylose Transferred to Acceptor (cpm), High Speed Supernatant (β1,2-xylosyltransferase [1]; detergent 1%): 541 cpm
- Xylose Transferred to Acceptor (cpm), Particulate Suspension (β1,2-xylosyltransferase [1]; detergent 1%): 2168 cpm

Molecule: CCCCCCCCCCCCCCCC[n+]1ccccc1.[Cl-] [CPC]
- Xylose Transferred to Acceptor (cpm), High Speed Supernatant (β1,2-xylosyltransferase [1]; detergent 1%): 64 cpm
- Xylose Transferred to Acceptor (cpm), Particulate Suspension (β1,2-xylosyltransferase [1]; detergent 1%): 1341 cpm

Molecule: [Ca+2].[Cl-].[Cl-] [CaCl2]
- Stimulation of enzyme activity (β1,2-xylosyltransferase [2]): 15%

Molecule: [Ca+2] [Ca^++]
- Effect of cation added to the purified enzyme (in words) (β1,2-xylosyltransferase [2]): no stimulation

Molecule: [Co+2] [Co^++]
- Effect of cation added to the purified enzyme (in words) (β1,2-xylosyltransferase [2]): no stimulation

Molecule: O=C(O)CN(CCN(CC(=O)O)CC(=O)O)CC(=O)O [EDTA]
- Effect of EDTA on purified xylosyltransferase (β1,2-xylosyltransferase [2]; addition of, or dialysis against): not inhibited

Molecule: [Fe+3] [Fe^+++]
- Effect of cation added to the purified enzyme (in words) (β1,2-xylosyltransferase [2]): strongly inhibitory

Molecule: [Fe+2] [Fe^++]
- Effect of cation added to the purified enzyme (in words) (β1,2-xylosyltransferase [2]): no stimulation

Molecule: C[C@@H]1O[C@H](OP(=O)(O)OP(=O)(O)OC[C@H]2O[C@@H](n3cnc4c(=O)[nH]c(N)nc43)[C@H](O)[C@@H]2O)[C@@H](O)[C@H](O)[C@@H]1O [GDP-fucose]
- Effect of unlabeled GDP-fucose on xylose incorporation (β1,2-xylosyltransferase [2]; high concentrations, oligosaccharide 4 acceptor, particulate enzyme): some inhibition of xylose incorporation
- cpm incorporated into oligosaccharide, Particulate Enzyme (β1,2-xylosyltransferase [3]): 1033 cpm
- cpm incorporated into oligosaccharide, Purified Enzyme (β1,2-xylosyltransferase [3]): 142 cpm

Molecule: Nc1nc2c(ncn2[C@@H]2O[C@H](COP(=O)(O)OP(=O)(O)O[C@H]3O[C@H](CO)[C@@H](O)[C@H](O)[C@@H]3O)[C@@H](O)[C@H]2O)c(=O)[nH]1 [GDP-mannose]
- cpm incorporated into oligosaccharide, Particulate Enzyme (β1,2-xylosyltransferase [3]): 75 cpm
- cpm incorporated into oligosaccharide, Purified Enzyme (β1,2-xylosyltransferase [3]): 59 cpm

Molecule: [Hg+2] [Hg^++]
- Effect of cation added to the purified enzyme (in words) (β1,2-xylosyltransferase [2]): strongly inhibitory

Molecule: CC(=O)N[C@H]1[C@H](O[C@H]2[C@H](O)[C@@H](NC(C)=O)C(O)O[C@@H]2CO)O[C@H](CO)[C@@H](O[C@@H]2O[C@H](CO[C@H]3O[C@H](CO[C@H]4O[C@H](CO)[C@@H](O)[C@H](O)[C@@H]4O[C@H]4O[C@H](CO)[C@@H](O)[C@H](O)[C@@H]4O)[C@@H](O)[C@H](O[C@H]4O[C@H](CO)[C@@H](O)[C@H](O)[C@@H]4O[C@H]4O[C@H](CO)[C@@H](O)[C@H](O)[C@@H]4O)[C@@H]3O)[C@@H](O)[C@H](O[C@H]3O[C@H](CO)[C@@H](O)[C@H](O)[C@@H]3O[C@H]3O[C@H](CO)[C@@H](O)[C@H](O)[C@@H]3O[C@H]3O[C@H](CO)[C@@H](O)[C@H](O)[C@@H]3O)[C@@H]2O)[C@@H]1O (stereo partly shown) [Man9(GlcNAc)2]
- Activity (cpm xylose transferred) with Particulate Enzyme (β1,2-xylosyltransferase [2]): 48 cpm
- Activity (cpm xylose transferred) with Purified Enzyme (β1,2-xylosyltransferase [2]): 262 cpm

Molecule: [Cl-].[Cl-].[Mg+2] [MgCl2]
- Effect of cation added to the purified enzyme (in words) (β1,2-xylosyltransferase [2]): slight stimulation
- Stimulation of enzyme activity (β1,2-xylosyltransferase [2]): 11%

Molecule: [Cl][Mn][Cl] [MnCl2]
- Effect of cation added to the purified enzyme (in words) (β1,2-xylosyltransferase [2]): slight stimulation

Molecule: CCCCCCCCO[C@@H]1O[C@H](CO)[C@@H](O)[C@H](O)[C@H]1O [Octylglucoside]
- Xylose Transferred to Acceptor (cpm), High Speed Supernatant (β1,2-xylosyltransferase [1]; detergent 1%): 210 cpm
- Xylose Transferred to Acceptor (cpm), Particulate Suspension (β1,2-xylosyltransferase [1]; detergent 1%): 2395 cpm

Molecule: [Pb+2] [Pb^++]
- Effect of cation added to the purified enzyme (in words) (β1,2-xylosyltransferase [2]): strongly inhibitory

Molecule: C[C@H](CCC(=O)NCCS(=O)(=O)O)[C@H]1CC[C@H]2[C@@H]3[C@H](O)C[C@@H]4C[C@H](O)CC[C@]4(C)[C@H]3C[C@H](O)[C@]12C [Taurocholoate]
- Xylose Transferred to Acceptor (cpm), High Speed Supernatant (β1,2-xylosyltransferase [1]; detergent 1%): 1574 cpm
- Xylose Transferred to Acceptor (cpm), Particulate Suspension (β1,2-xylosyltransferase [1]; detergent 1%): 1570 cpm

Molecule: CC(=O)N[C@H]1[C@@H](OP(=O)(O)OP(=O)(O)OC[C@H]2O[C@@H](n3ccc(=O)[nH]c3=O)[C@H](O)[C@@H]2O)O[C@H](CO)[C@H](O)[C@@H]1O [UDP-GalNAc]
- cpm incorporated into oligosaccharide, Particulate Enzyme (β1,2-xylosyltransferase [3]): 72 cpm
- cpm incorporated into oligosaccharide, Purified Enzyme (β1,2-xylosyltransferase [3]): 63 cpm

Molecule: CC(=O)N[C@H]1[C@@H](OP(=O)(O)OP(=O)(O)OC[C@H]2O[C@@H](n3ccc(=O)[nH]c3=O)[C@H](O)[C@@H]2O)O[C@H](CO)[C@@H](O)[C@@H]1O [UDP-GlcNAc]
- cpm incorporated into oligosaccharide, Particulate Enzyme (β1,2-xylosyltransferase [3]): 246 cpm
- cpm incorporated into oligosaccharide, Purified Enzyme (β1,2-xylosyltransferase [3]): 128 cpm

Molecule: O=C(O)[C@H]1O[C@H](OP(=O)(O)OP(=O)(O)OC[C@H]2O[C@@H](n3ccc(=O)[nH]c3=O)[C@H](O)[C@@H]2O)[C@H](O)[C@@H](O)[C@@H]1O [UDP-glucuronic acid]
- Effect of unlabeled nucleoside diphosphate sugar on radiolabel in the 56 and 59 kDa bands [4]: did not inhibit

Molecule: O=c1ccn([C@@H]2O[C@H](COP(=O)(O)OP(=O)(O)O[C@H]3OC[C@@H](O)[C@H](O)[C@H]3O)[C@@H](O)[C@H]2O)c(=O)[nH]1 [UDP-xylose]
- Effect of unlabeled nucleoside diphosphate sugar on radiolabel in the 56 and 59 kDa bands [4]: greatly diminished
- Effect of unlabeled UDP-xylose on incorporation of fucose into oligosaccharide (fucosyltransferase): did not affect the incorporation of fucose
- cpm incorporated into oligosaccharide, Particulate Enzyme (β1,2-xylosyltransferase [3]): 1479 cpm
- cpm incorporated into oligosaccharide, Purified Enzyme (β1,2-xylosyltransferase [3]): 2597 cpm
- Km (β1,2-xylosyltransferase [5]): ~0.1 µM

Molecule: GlcNAc2Man3(GlcNAc)2-T [Oligosaccharide 4]
- Effect of oligosaccharide on binding of UDP-xylose probe [4]: greatly stimulated binding of UDP-xylose
- Ability to serve as acceptor of xylose (in words) (β1,2-xylosyltransferase [2]): best acceptors
- Activity (cpm xylose transferred) with Particulate Enzyme (β1,2-xylosyltransferase [2]): 3578 cpm
- Activity (cpm xylose transferred) with Purified Enzyme (β1,2-xylosyltransferase [2]): 3648 cpm
- Km (β1,2-xylosyltransferase [2]): ~75 µM

Molecule: GlcNAc2Man3GlcNAc(Fuc)GlcNAc-T [Oligosaccharide 10]
- Effect of oligosaccharide on binding of UDP-xylose probe [4]: greatly stimulated binding of UDP-xylose
- Ability to serve as acceptor of xylose (in words) (β1,2-xylosyltransferase [2]): best acceptors
- Activity (cpm xylose transferred) with Particulate Enzyme (β1,2-xylosyltransferase [2]): 3212 cpm
- Activity (cpm xylose transferred) with Purified Enzyme (β1,2-xylosyltransferase [2]): 2387 cpm
- Km (β1,2-xylosyltransferase [2]): ~150 µM

Molecule: GlcNAc-Man3-5-isomer [Oligosaccharide 9]
- Ability to serve as acceptor of xylose (in words) (β1,2-xylosyltransferase [2]): completely inactive as an acceptor
- Activity (cpm xylose transferred) with Purified Enzyme (β1,2-xylosyltransferase [2]): 1194 cpm

Molecule: GlcNAc-Man3-5′-isomer [Oligosaccharide 8]
- Effectiveness as xylose acceptor as compared to oligosaccharide 4 (β1,2-xylosyltransferase [2]): about 50%
- Activity (cpm xylose transferred) with Purified Enzyme (β1,2-xylosyltransferase [2]): 69 cpm

Molecule: Transferrin: transferrin obtained from Sigma Chemical Co.
- Activity (cpm xylose transferred) with Purified Enzyme (β1,2-xylosyltransferase [2]): 106 cpm

Molecule: Triton x-100
- Enzymatic activity recovered in the supernatant liquid (β1,2-xylosyltransferase [1]; 1% or 2% detergent in Buffer B): at least 80%
- Xylose Transferred to Acceptor (cpm), High Speed Supernatant (β1,2-xylosyltransferase [1]; detergent 0.5%): 1189 cpm
- Xylose Transferred to Acceptor (cpm), Particulate Suspension (β1,2-xylosyltransferase [1]; detergent 0.5%): 2481 cpm
- Xylose Transferred to Acceptor (cpm), High Speed Supernatant (β1,2-xylosyltransferase [1]; detergent 1%): 2188 cpm
- Xylose Transferred to Acceptor (cpm), Particulate Suspension (β1,2-xylosyltransferase [1]; detergent 1%): 2689 cpm
- Xylose Transferred to Acceptor (cpm), High Speed Supernatant (β1,2-xylosyltransferase [1]; detergent 2%): 2297 cpm
- Xylose Transferred to Acceptor (cpm), Particulate Suspension (β1,2-xylosyltransferase [1]; detergent 2%): 2695 cpm
